# Assays:
# [1] = test system: HepG-2 cells; assay: Annexin V-FITC apoptosis assay; assay type: cell-based, human; settings: HepG-2, 5a at 2.5 μM for 24 h
# Experimental: To further confirm Apoptotic effect of compound 5a in HepG-2 cells, Annexin V and PI double staining assay was performed.[55] In this test, HepG-2 cells were incubated with compound 5a at concentration of 2.5 μM for 24 h.
# The effect of the most cytotoxic compound 5a on apoptosis induction was analyzed using Annexin V-FITC/PI apoptosis detection kit. In this test, HepG-2 cells were stained with Annexin V fluorescein isothiocyanate (FITC) and counterstained with propidium iodide (PI). Then, HepG-2 cells in a density of 2 × 10^5 per well were incubated with compound 5a for […]. Next, the cells were trypsinized, washed with phosphate-buffered saline (PBS), and stained for 15 min at 37 °C in the dark. Finally, FACS Caliber flow cytometer was used in analysis process.[55]
# [2] = test system: HCT-116; assay: In vitro anti-proliferative activity, MTT assay, HCT-116; assay type: cell-based, human; settings: for IC50: Homo sapiens, HCT-116, MTT, 24 h treatment, mean ± S.D. of three separate experiments
# Experimental: (§1) The cells were obtained from ATCC (American Type Culture Collection) via the Holding company for biological products and vaccines (VACSERA) (Cairo, Egypt). […] After incubation period, the cell lines were treated with different concentration of the synthesized compounds and incubated for 24 h. After treatment by 24 h, 20 μL of MTT solution (5 mg mL^−1) was added and incubated for 4 h. Dimethyl sulfoxide (100 μL) was added into each well to dissolve the formed purple formazan. […] The relative cell viability in percentage was calculated as (A570 of treated samples/A570 of untreated sample) X 100.
# [3] = test system: HepG-2 cells; assay: Cell cycle analysis (PI staining, flow cytometry); assay type: cell-based, human
# Experimental: To gain a better insight into the impact of compound 5a on cancer cell growth inhibition, its impact on cell cycle distribution and apoptosis induction was assessed using HepG-2 cells according to the method outlined by Wang et al.[53] In fact, anticancer agents hinder cancer cell growth and multiplication by arresting cell division at distinct checkpoints, and that cells resist apoptosis are highly resistant to cancer treatment.[54]
# HepG-2 cells were seeded at density of 2 × 10^5 cells per well and incubated for 24 h in six-well plates. Fetal bovine serum (FBS, 10%) was added, after that cells were incubated at 37 °C and 5% CO2. The medium was replaced with (DMSO 1% v/v) containing the 2.5 μM of compound 5a, then incubated for 48 h, washed with cold phosphate buffered saline (PBS), fixed with 70% ethanol, rinsed with PBS then stained with the DNA fluorochrome PI, kept for 15 min at 37 °C. Then samples were analyzed with a FACS Caliber flow cytometer.[53]
# [4] = biological target: T1, purified bovine tubulin (Bos taurus, UniProt P81947+Q6B856); assay: In vitro tubulin polymerization assay; assay type: biochemical; settings: purified bovine tubulin 10 μM, 37 °C; read-out: IC50 Tubulin polymerization inhibition
# T1 construct: purified bovine tubulin (10 μM); from tissue; host or cells: bovine
# Experimental: The inhibition assay on microtubule polymerization was evaluated turbidimetrically using a fluorescent plate reader.[52]
# [5] = test system: HepG-2; assay: In vitro anti-proliferative activity, MTT assay, HepG-2; assay type: cell-based, human; settings: for IC50: Homo sapiens, HepG2, MTT, 24 h treatment, mean ± S.D. of three separate experiments
# Experimental: as §1
# [6] = test system: MCF-7; assay: In vitro anti-proliferative activity, MTT assay, MCF-7; assay type: cell-based, human; settings: for IC50: Homo sapiens, MCF7, MTT, 24 h treatment, mean ± S.D. of three separate experiments
# Experimental: as §1
# T1 sequence (Q6B856 whole entry): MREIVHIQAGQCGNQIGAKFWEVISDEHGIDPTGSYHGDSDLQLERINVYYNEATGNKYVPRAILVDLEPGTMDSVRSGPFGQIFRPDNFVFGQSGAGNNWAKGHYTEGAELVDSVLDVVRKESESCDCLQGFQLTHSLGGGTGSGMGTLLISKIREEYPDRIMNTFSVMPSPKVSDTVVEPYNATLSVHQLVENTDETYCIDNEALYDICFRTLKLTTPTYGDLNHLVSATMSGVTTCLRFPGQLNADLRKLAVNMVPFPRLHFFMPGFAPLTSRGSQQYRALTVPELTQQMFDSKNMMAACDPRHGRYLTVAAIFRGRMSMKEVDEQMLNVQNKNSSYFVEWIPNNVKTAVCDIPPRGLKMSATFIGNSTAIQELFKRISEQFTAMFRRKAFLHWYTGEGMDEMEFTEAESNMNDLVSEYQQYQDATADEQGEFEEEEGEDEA
# T1 sequence (P81947 whole entry): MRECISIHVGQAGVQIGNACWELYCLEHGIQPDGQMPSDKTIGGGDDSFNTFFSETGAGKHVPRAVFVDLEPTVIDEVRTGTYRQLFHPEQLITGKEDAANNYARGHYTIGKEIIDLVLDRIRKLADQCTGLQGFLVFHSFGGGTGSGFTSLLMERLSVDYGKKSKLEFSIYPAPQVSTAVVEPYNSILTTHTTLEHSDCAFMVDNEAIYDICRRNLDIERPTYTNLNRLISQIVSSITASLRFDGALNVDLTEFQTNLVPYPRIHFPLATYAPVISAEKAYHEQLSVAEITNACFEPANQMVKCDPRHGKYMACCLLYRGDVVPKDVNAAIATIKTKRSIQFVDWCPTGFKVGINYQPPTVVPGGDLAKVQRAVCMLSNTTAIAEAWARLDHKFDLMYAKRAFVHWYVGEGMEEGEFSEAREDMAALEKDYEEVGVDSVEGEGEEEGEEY
melting point,IC50 [2],IC50 [4],IC50 [6],SMILES,Necrosis ([1]; control 0.48),Apoptosis Late ([1]; control 0.64),Apoptosis Early ([1]; control 1.02),Apoptosis Total ([1]; control 2.14),times as active as colchicine against HCT-116 ([2]; ratio of IC50 values),"Cell cycle distribution % Pre-G1 ([3]; HepG-2, 5a at 2.5 μM for 48 h, control 2.14)","Cell cycle distribution % G2-M ([3]; HepG-2, 5a at 2.5 μM for 48 h, control 5.09)","Cell cycle distribution % S ([3]; HepG-2, 5a at 2.5 μM for 48 h, control 38.15)","Cell cycle distribution % G0-G1 ([3]; HepG-2, 5a at 2.5 μM for 48 h, control 56.76)",effect on cell cycle ([3]; HepG-2 cells),IC50 [5],times as active as colchicine against HepG-2 ([5]; ratio of IC50 values),times as active as colchicine against MCF-7 ([6]; ratio of IC50 values)
202 to 204 °C,6.41 ± 0.1 µM,9.52 ± 0.3 nM,4.51 ± 0.6 µM,"C/C(=N\NC1=N/C(=C/c2cccs2)C(=O)S1)c1ccc(C)cc1 [Compound 5a, (E)-4-(Thiophen-2-ylmethylene)-2-(2-((E)-1-(p-tolyl)ethylidene)hydrazinyl) thiazol-5(4H)-one]",1.54%,5.54%,8.25%,15.33%,1.45 times,15.33%,20.55%,39.28%,40.17%,cell arrest at G2/M phase,3.34 ± 0.1 µM,2.23 times,2.32 times
293 to 295 °C,15.6 ± 0.4 µM,47.8 ± 2.1 nM,22.7 ± 0.7 µM,"C/C(=N\NC1=N/C(=C/c2ccc(O)cc2)C(=O)S1)c1ccco1 [Compound 8i, 2-(2-((E)-1-(Furan-2-yl)ethylidene)hydrazinyl)-4-((E)-4-hydroxybenzylid-ene)thiazol-5(4H)-one]",–,–,–,–,–,–,–,–,–,–,12.5 ± 0.2 µM,–,–
272 to 274 °C,12 ± 0.3 µM,38.4 ± 1.4 nM,20 ± 0.4 µM,"C/C(=N\NC1=N/C(=C/c2ccc(Cl)cc2)C(=O)S1)c1ccco1 [Compound 8h, 4-((E)-4-Chlorobenzylidene)-2-(2-((E)-1-(furan-2-yl)ethylidene)hydra-zinyl)thiazol-5(4H)-one]",–,–,–,–,–,–,–,–,–,–,10.3 ± 0.6 µM,–,–
205 to 207 °C,17.3 ± 1.4 µM,44.5 ± 2.3 nM,22.4 ± 1 µM,"COc1ccc(/C(C)=N/NC(N)=S)cc1OC [Compound 3b, (E)-2-(1-(3,4-Dimethoxyphenyl)ethylidene)hydrazine-1-carbothioamide]",–,–,–,–,–,–,–,–,–,–,12.9 ± 0.4 µM,–,–
282 to 284 °C,10.28 ± 0.1 µM,13.2 ± 0.9 nM,7.89 ± 0.5 µM,"C/C(=N\NC1=N/C(=C/c2ccc(O)cc2O)C(=O)S1)c1ccco1 [Compound 8l, 4-((E)-2,4-Dihydroxybenzylidene)-2-(2-((E)-1-(furan-2-yl)ethylidene) hydrazinyl) thiazol-5(4H)-one]",–,–,–,–,–,–,–,–,–,–,3.73 ± 0.1 µM,–,–

# Reference: paper PMC9048505 (RSC Advances, 2020)
